Test results: patent EP0613879A1, “PHELLODENDRINE ANALOGS AND ALLERGY TYPE IV SUPPRESSOR CONTAINING THE SAME AS ACTIVE INGREDIENT” (TSUMURA & CO., priority 1991, dated 1992)

Legend:
[1] = tested on: sole reaction in sheep red blood cells (SRBC); assay: sole reaction to sheep red blood cells (SRBC), foot volume increase 24 hours after induction; format: in vivo, BALB/c mice; settings: 3.0 x 10⁻⁴ mol/kg orally for four days after the sensitization
Experimental: The actions of the compounds of the present invention in the course of creation of the cellular immunity were studied using the sole reaction in sheep red blood cells (SRBC).
BALB/c mice (female, age: 7 weeks) were sensitized by injecting 0.2 ml of SRBC adjusted to 2.5 x 10⁵ cells/ml with a physiological saline solution into caudal vein. Four days after the sensitization, the volume of the right foot of the mice was measured. Then, 0.025 ml of SRBC from the same lot as above adjusted to 4 x 10⁹ cells/ml was subcutaneously injected into the right sole to induce a reaction. 24 hours after the reaction has been induced, the intensity of the reaction was determined by subtracting the right foot volume before the reaction from the volume after the reaction. The test compounds at a concentration of 3.0 x 10⁻⁴ mol/kg were orally administered for four days after the sensitization.

ICR mice = settings: mouse, in vivo, po
Source text: Compounds obtained in Synthetic Examples 18, 35, and 66 were orally administered to ICR mice (each dose to each group consisting of 10 mice).

[2] = against Control 2 (5% ethanol-olive oil)
[3] = against Control 3 (Purified water)

CN(Cc1ccc(O)cc1)Cc1cccc(O)c1 [Synthetic Example 30, N-(4-hydroxybenzyl)-N-methyl-3-hydroxybenzylamine]
Rate of suppression (%) [1, 2]: 33.2%

COc1ccc(CN(C)Cc2ccc(O)c(OC)c2)cc1O [Synthetic Example 35, N-(4-hydroxy-3-methoxybenzyl)-N-methyl-3-hydroxy-4-methoxybenzylamine]
dose up to which no death was caused (ICR mice): ≤ 1,000 mg/kg

Oc1cccc(CNCc2cccc(O)c2)c1 [Synthetic Example 7, N,N-bis(3-hydroxybenzyl)amine]
Rate of suppression (%) [1, 3]: 54.4%

CCN(Cc1ccc(O)cc1)Cc1cccc(O)c1 [Synthetic Example 61, N-ethyl-N-(4-hydroxybenzyl)-3-hydroxybenzylamine]
Rate of suppression (%) [1, 2]: 21.8%

COc1ccc(CN(C)Cc2cccc(OC)c2)cc1 [Synthetic Example 27, N-(4-methoxybenzyl)-N-methyl-3-methoxybenzylamine]
Rate of suppression (%) [1, 3]: 32.8%

COc1ccc(CCNCCc2ccc(O)c(OC)c2)cc1O [Synthetic Example 66, N-(4-hydroxy-3-methoxyphenetyl)-3-hydroxy-4-methoxyphenetylamine]
dose up to which no death was caused (ICR mice): ≤ 1,000 mg/kg

COc1ccc(CC(=O)NCCc2ccc(O)c(OC)c2)cc1O [Synthetic Example 18, N-(4-hydroxy-3-methoxyphenetyl)-3-hydroxy-4-methoxyphenylacetamide]
dose up to which no death was caused (ICR mice): ≤ 1,000 mg/kg

COc1ccc(CNCc2ccc(OC)cc2)cc1.O=C(O)/C=C\C(=O)O [Synthetic Example 46, N,N-bis(4-methoxybenzyl)amine maleate]
Rate of suppression (%) ([1]; against Control 1 (0.5% gum arabic-purified water)): 38.1%

CN(Cc1ccc(O)cc1)C(=O)c1cccc(O)c1 [Synthetic Example 25, N-(4-hydroxybenzyl)-N-methyl-3-hydroxybenzamide]
Rate of suppression (%) [1, 2]: 26.7%
